In patent publication US8680113B2, “BMI-1 protein expression modulators” (PTC Therapeutics, Inc., priority 2008, dated 2014):

Test system: Bmi-1
Experiment: Sandwich ELISA Assay (Bmi-1 ELISA in HT-1080 cells)
Format: cell-based, human
Description: Cell Seeding and Compound Treatment (Day 1):
HT-1080 cells were seeded at 8000 cells/well (50 uL) in 96-well tissue culture plates. After the cells become adherent (3-4 hours), 2× diluted stocks of compounds in 50 uL DMEM containing 1% DMSO (final DMSO concentration was 0.5%) were added and the plates were incubated at 37° C. under 5% CO2 for 40-48 hours
ELISA Plate First Antibody Preparation (Day 2):
The First Antibody (Millipore Mouse, monoclonal to mouse Bmi-1, clone F6, catalog #05-637) diluted to 2 ug/mL in PBS was added (100 uL) to each well of a Nunc MaxiSorp 96-well ELISA plate. The plate was covered with a plate seal and allowed to stand overnight.
Cell Lysate Preparation (Day 3):
Fresh 1× Lysis buffer was prepared on the day of the assay as follows: 1 mM EDTA, 150 mM NaCl, 0.5% Triton-X 100, 10 mM NaF, 20 mM B-Glycerophosphate, 1 mM DTT (in PBS, pH 7.2-7.4) and 1×HALT protease inhibitor cocktail (Pierce #78410).
1× Lysis Buffer (40 uL) was added to each well and the plate was shaken for 5-10 minutes on an orbital shaker to allow cell lysis, then Diluent (1% BSA in PBS in 0.5% NP40) (100 uL) was added to each well.
The Bmi-1 standard curve was prepared in Diluent at the following concentrations of protein: 8000, 4000, 2000, 1000, 500, 250, 125, 0 pg/mL The Bmi-1 Recombinant Protein Standard (Novus Biologicals PCGF4 Recombinant Protein (P01), catalog #H00000648-P01) used in the standard curve was stored at −80° C., and on first thaw, diluted to 10 ug/uL in Blocking Buffer (1% BSA in PBS; BSA: Fisher Scientific Catalog #1600-100) before being aliquoted and refrozen at −80° C. Aliquots can be kept at 4° C. and reused after first thaw, but only for 1-2 weeks. The Bmi-1 Recombinant Protein Standard contains a GST-fusion tag and thus will show up on western blots around 70 Kda.
The prepared ELISA plate was washed 3× with Wash Buffer (0.05% Tween-20 in PBS). The final wash was removed from the plate and the plate was blotted dry on paper towels. Blocking Buffer (300 uL) (1% BSA in PBS) was added per well. The plate was covered with a plate seal and incubated at room temperature for 1 hour. The blocked plate was washed 3× with Wash Buffer, the final wash was removed and the plate was blotted dry on paper towels. The previously prepared samples and standards were added (at 100 uL/well) and the plate was covered with a plate seal and incubated at 4° C. overnight.
The prepared ELISA plate was removed from 4° C., incubated at room temperature for 30 minutes, then washed and blotted dry as previously described for Day 3. The Second Antibody (Cell Signaling Rabbit anti-Bmi-1, Cat#2830) diluted to 1:600 in Blocking Buffer was added (100 uL) to each well, except as needed for background control wells. The plate was covered with a plate seal and incubated for 1.5 hrs at room temperature.
The ELISA plate was washed and blotted dry as previously described. The Third Antibody (Cell Signaling HRP conjugated anti-rabbit IgG (CellSignaling, Cat#:7074) diluted to 1:300 in Blocking Buffer was added (100 uL) to each well, except as needed for background control wells. The plate was incubated for 1 hr at room temperature.
The plate was washed and blotted dry as previously described, then prepared TMB substrate (TMB substrate kit, Pierce catalog #34021) (prepared by mixing kit reagents 1:1) (100 uL) was added per well. The plate was incubated for 20-30 minutes at room temperature in the dark, then Stop Solution (2 M sulfuric acid in water) (50 uL) was added per well. The plates were read at OD450 (experimental) and OD570 (reference).

IC50, < 500 nM:
CC(=O)c1ccc(Nc2nccc(-c3c(C)nc4ccccn34)n2)cc1 [Cpd 117, 1-(4-{[4-(2-methylimidazo[1,2-a]pyridin-3-yl)pyrimidin-2-yl]amino}phenyl)ethanone]
Cc1ccn2c(-c3csc(Nc4ccc5c(c4)OCO5)n3)c(C)nc2c1 [Cpd 63, N-(1,3-benzodioxol-5-yl)-4-(2,7-dimethylimidazo[1,2-a]pyridin-3-yl)-1,3-thiazol-2-amine]
Cc1ccn2c(-c3csc(Nc4ccc(N(C)C)cc4)n3)c(C)nc2c1 [Cpd 64, N′-[4-(2,7-dimethylimidazo[1,2-a]pyridin-3-yl)-1,3-thiazol-2-yl]-N,N-dimethylbenzene-1,4-diamine]
Cc1nc2ccccn2c1-c1csc(Nc2ccc(F)cc2F)n1 [Cpd 203, N-(2,4-difluorophenyl)-4-(2-methylimidazo[1,2-a]pyridin-3-yl)-1,3-thiazol-2-amine]
CCOc1ccc(Nc2nc(-c3c(C)nc4ncccn34)cs2)cc1 [Cpd 13, N-(4-ethoxyphenyl)-4-(2-methylimidazo[1,2-a]pyrimidin-3-yl)thiazol-2-amine]
COc1ccccc1Nc1nc(-c2c(C)nc3c(Br)cccn23)cs1 [Cpd 234, 4-(8-bromo-2-methylimidazo[1,2-a]pyridin-3-yl)-N-(2-methoxyphenyl)-1,3-thiazol-2-amine]
Cc1nc2ccc(Cl)cn2c1-c1csc(Nc2ccccc2)n1 [Cpd 133, 4-(6-chloro-2-methylimidazo[1,2-a]pyridin-3-yl)-N-phenyl-1,3-thiazol-2-amine]
COc1ccc(Nc2nc(-c3c(C)nc4c(Br)cccn34)cs2)cc1 [Cpd 228, 4-(8-bromo-2-methylimidazo[1,2-a]pyridin-3-yl)-N-(4-methoxyphenyl)-1,3-thiazol-2-amine]
CCCc1nc2ccccn2c1-c1csc(Nc2ccc(OCC)cc2)n1 [Cpd 173, N-(4-ethoxyphenyl)-4-(2-propylimidazo[1,2-a]pyridin-3-yl)-1,3-thiazol-2-amine]
Cc1nc2ccc(Br)cn2c1-c1csc(Nc2ccc3c(c2)OCO3)n1 [Cpd 82, N-(1,3-benzodioxol-5-yl)-4-(6-bromo-2-methylimidazo[1,2-a]pyridin-3-yl)-1,3-thiazol-2-amine]
Cc1nc2ncccn2c1-c1csc(Nc2ccc3c(c2)OCO3)n1 [Cpd 37, N-(1,3-benzodioxol-5-yl)-4-(2-methylimidazo[1,2-a]pyrimidin-3-yl)-1,3-thiazol-2-amine]
Clc1ccc2ncc(-c3csc(Nc4ccc(I)cc4)n3)n2c1 [Cpd 108, 4-(6-chloroimidazo[1,2-a]pyridin-3-yl)-N-(4-iodophenyl)-1,3-thiazol-2-amine]
c1ccn2c(-c3ccnc(Nc4ccc5c(c4)OCO5)n3)cnc2c1 [Cpd 251, N-(1,3-benzodioxol-5-yl)-4-(imidazo[1,2-a]pyridin-3-yl)pyrimidin-2-amine]
CCOc1ccc(Nc2nccc(-c3cnc4ncccn34)n2)cc1 [Cpd 262, N-(4-ethoxyphenyl)-4-(imidazo[1,2-a]pyrimidin-3-yl)pyrimidin-2-amine]
Cc1nc2ncccn2c1-c1csc(Nc2ccc(Br)cc2)n1 [Cpd 48, N-(4-bromophenyl)-4-(2-methylimidazo[1,2-a]pyrimidin-3-yl)-1,3-thiazol-2-amine]
Cc1nc2c(C)cccn2c1-c1csc(Nc2ccc3c(c2)OCO3)n1 [Cpd 226, N-(1,3-benzodioxol-5-yl)-4-(2,8-dimethylimidazo[1,2-a]pyridin-3-yl)-1,3-thiazol-2-amine]
Fc1cccc(Nc2nccc(-c3cnc4ncccn34)n2)c1 [Cpd 267, N-(3-fluorophenyl)-4-(imidazo[1,2-a]pyrimidin-3-yl)pyrimidin-2-amine]
Cc1nc2c(Br)cccn2c1-c1csc(Nc2ccccc2)n1 [Cpd 231, 4-(8-bromo-2-methylimidazo[1,2-a]pyridin-3-yl)-N-phenyl-1,3-thiazol-2-amine]
COc1ccc(Nc2nc(-c3c(C)nc4ccc(C)cn34)cs2)cc1 [Cpd 71, 4-(2,6-dimethylimidazo[1,2-a]pyridin-3-yl)-N-(4-methoxyphenyl)-1,3-thiazol-2-amine]
CCCc1nc2ccccn2c1-c1csc(Nc2ccc(C(C)=O)cc2)n1 [Cpd 177, 1-(4-{[4-(2-propylimidazo[1,2-a]pyridin-3-yl)-1,3-thiazol-2-yl]amino}phenyl)ethanone]
CC(=O)c1cccc(Nc2nc(-c3c(C)nc4ccc(Cl)cn34)cs2)c1 [Cpd 211, 1-(3-{[4-(6-chloro-2-methylimidazo[1,2-a]pyridin-3-yl)-1,3-thiazol-2-yl]amino}phenyl)ethanone]
Cc1nc2c(Br)cccn2c1-c1csc(Nc2ccccc2Cl)n1 [Cpd 233, 4-(8-bromo-2-methylimidazo[1,2-a]pyridin-3-yl)-N-(2-chlorophenyl)-1,3-thiazol-2-amine]
Cc1nc2ncccn2c1-c1ccnc(N(C)c2ccc(I)cc2)n1 [Cpd 125, N-(4-iodophenyl)-N-methyl-4-(2-methylimidazo[1,2-a]pyrimidin-3-yl)pyrimidin-2-amine]
Cc1ccc2nc(C)c(-c3csc(Nc4ccc(Cl)cc4)n3)n2c1 [Cpd 78, N-(4-chlorophenyl)-4-(2,6-dimethylimidazo[1,2-a]pyridin-3-yl)-1,3-thiazol-2-amine]
CCOc1ccc(Nc2nc(-c3c(C)nc4ccccn34)cs2)cc1 [Cpd 204, N-(4-ethoxyphenyl)-4-(2-methylimidazo[1,2-a]pyridin-3-yl)-1,3-thiazol-2-amine]
Cc1ccc(Nc2nc(-c3c(C)nc4c(Br)cccn34)cs2)cc1 [Cpd 229, 4-(8-bromo-2-methylimidazo[1,2-a]pyridin-3-yl)-N-(4-methylphenyl)-1,3-thiazol-2-amine]
COc1ccc(Nc2nc(-c3c(C)nc4ccc(Cl)cn34)cs2)cc1 [Cpd 59, 4-(6-chloro-2-methylimidazo[1,2-a]pyridin-3-yl)-N-(4-methoxyphenyl)-1,3-thiazol-2-amine]
Cc1nc2ncccn2c1-c1ccnc(Nc2ccc(I)cc2)n1 [Cpd 120, N-(4-iodophenyl)-4-(2-methylimidazo[1,2-a]pyrimidin-3-yl)pyrimidin-2-amine]
COc1ccc(Nc2nc(-c3c(C)nc4cc(C)ccn34)cs2)cc1 [Cpd 17, 4-(2,7-dimethylimidazo[1,2-a]pyridin-3-yl)-N-(4-methoxyphenyl)thiazol-2-amine]
CC(=O)c1ccc(Nc2nc(-c3c(C)nc4ncccn34)cs2)cc1 [Cpd 34, 1-(4-{[4-(2-methylimidazo[1,2-a]pyrimidin-3-yl)-1,3-thiazol-2-yl]amino}phenyl)ethanone]
CCCc1nc2ncccn2c1-c1csc(Nc2ccc3c(c2)OCO3)n1 [Cpd 182, N-(1,3-benzodioxol-5-yl)-4-(2-propylimidazo[1,2-a]pyrimidin-3-yl)-1,3-thiazol-2-amine]
Cc1nc2ccc(Cl)cn2c1-c1csc(Nc2cccc(F)c2)n1 [Cpd 215, 4-(6-chloro-2-methylimidazo[1,2-a]pyridin-3-yl)-N-(3-fluorophenyl)-1,3-thiazol-2-amine]
COc1ccc(Nc2nccc(-c3c(C)nc4ncccn34)n2)cc1 [Cpd 115, N-(4-methoxyphenyl)-4-(2-methylimidazo[1,2-a]pyrimidin-3-yl)pyrimidin-2-amine]
Cc1nc2c(O)cccn2c1-c1csc(Nc2ccc3c(c2)OCO3)n1 [Cpd 94, 3-[2-(1,3-benzodioxol-5-ylamino)-1,3-thiazol-4-yl]-2-methylimidazo[1,2-a]pyridin-8-ol]
